Entries after “also recorded” stand apart in the source; their conditions may differ.
Experiments:
Human pulmonary EC = assay: Atomic Force Microscopy of EC morphology and lipid rafts; assay type: cell-based; conditions: 100 nM high MW HA
Experimental: Atomic Force Microscopy. The protocols/procedures for AFM analysis of 50 to 100 nm pits (CEM, lipid rafts), EC height and force measurements were previously described in detail (Dvorak, 2003, Reich et al., 2001, Henderson et al., 2004, Milhiet et. al., 2004, Miklaszewska, 2004, Lucius, 2003). EC treated with various siRNAs or treated with MβCD with or without 100 nM high MW HA (0, 15, 30, 60 min.) were fixed in 4% glutaraldehyde and analyzed in tapping mode on a DI multimode AFM (Digital Instruments, Santa Barbara, Calif.) using a V-shaped oxide-sharpened silicon nitride cantilever with an optical scanning speed of ˜1.0 Hz to obtain a surface topology map which was quantitated and spatially defined using Metamorph™ software. For live cells, GFP and GFP-caveolin-1 expressing EC were treated with or without 100 nM high MW HA in a DI Bioscope cell chamber (Digital Instruments, Santa Barbara, Calif.) were exposed to tapping mode AFM with concurrent fluorescence scanning and images were obtained using a C5985 chilled CCD camera (Hamamatsu Photonics Systems, Bridgewater, N.J.).

C1INH = C1INH expression in EC (immunoblot); assay type: cell-based, human; conditions: 100 nM HMW-HA
Experimental: Determination of the role of HMW-HA/HABP2/C1INH interactions in regulating angiogenesis in vitro. Human pulmonary EC (Cambrex), grown in EBM-2 complete medium (Cambrex) at 37° C. in a humidified atmosphere of 5% CO2, 95% air, with passages 6-10 used for experimentation will be treated with or without 100 nM HMW-HA and/or 100 nM VEGF in the presence or absence of HABP2 and/or C1INH overexpression vectors (Origene), exogenous purified recombinant HABP2 polyanion binding domain and/or C1INH (Novus Biologicals) and/or siRNA (scramble, HABP2 or C1INH). For HABP2 protease activity determination, media from HABP2 overexpressing EC (see above) was immunoprecipitated with anti-HABP2 antibody-conjugated Sepharose beads (Sigma). The immunobeads were then extensively washed in 50 mM Borate, pH=8.5 and protease activity was measured using the QuantiCleave™ Protease Assay Kit (Pierce). Briefly, the immunobeads were incubated with succinylated casein for one hour followed by development with TNBSA (2,4,6-trinitrobenzene sulfonic acid) and read at 450 nm.

[1] = test system: LPS-induced murine lung vascular permeability; assay: LPS-induced murine lung vascular permeability, bronchioalveolar lavage (BAL) protein and cytokines; assay type: in vivo, mouse; conditions: for LPS-induced pulmonary hyper-permeability (BAL protein concentration): wildtype C57BL/6J mice, LPS 2.5 mg/kg intratracheally, HMW-HA 1.5 mg/kg or HGF 50 μg/kg intravenously 4 hours after LPS, BAL at 24 hours
Experimental: Animal Preparation and Treatment—Male C57BL/6J and CD44 knockout mice (8-10 weeks, Jackson Laboratories, Bar Harbor, Me.) were anesthetized with intraperitoneal ketamine (150 mg/kg) and acetylpromazine (15 mg/kg) according to approved protocols. LPS (2.5 mg/kg) or saline (control) were instilled intratracheally and four hours later, HGF (50 μg/kg) or saline control delivered intravenously through the internal jugular vein. The animals were allowed to recover for 24 h followed by bronchioalveolar lavage protein analysis and/or lung immunohistochemistry.
Determination of Bronchioalveolar Lavage Protein Concentration—Bronchioalveolar lavage (BAL) was performed by an intratracheal injection of 1 cc of Hank's balanced salt solution followed by gentle aspiration. The recovered fluid was processed for protein concentration (BCA Protein Assay Kit; Pierce Chemical Co., Rockford, Ill.) as described (Su et al., 2004).
Animals. Male C57BL/6J mice, CD44 knockout mice, Caveolin-1 knockout mice (8-10 weeks, Jackson Laboratories, Bar Harbor, Me.) were anesthetized with intraperitoneal ketamine (150 mg/kg) and acetylpromazine (15 mg/kg) according to approved protocols. LPS (2.5 mg/kg) or saline (control) were instilled intratracheally and four hours later, HMW-HA (1.5 mg/kg) or saline control delivered intravenously through the internal jugular vein. The animals were allowed to recover for 24 hours followed by bronchioalveolar lavage protein analysis and/or lung immunohistochemistry.
Determination of protein concentration. Total protein concentration. TGF-alpha concentration. TGF-beta1 concentration. Bronchioalveolar lavage (BAL) was performed by an intratracheal injection of 1 cc of Hank's balanced salt solution followed by gentle aspiration. The recovered fluid was processed for protein concentration (BCA Protein Assay Kit; Pierce Chemical Co., Rockford, Ill.) or used to determine TNF-α and TGF-β1 concentrations using quantitative sandwich enzyme immunoassays (R & D Systems, Minneapolis, Minn.).
(§1) Animal Preparation and Treatment. Male C57BL/6J, B6129N2, CD44^−/− or caveolin-1^−/− mice (8-10 weeks, Jackson Laboratories, Bar Harbor, Me.) were anesthetized with intraperitoneal ketamine (150 mg/kg) and acetylpromazine (15 mg/kg) before exposure of the right internal jugular vein via neck incision. LPS (2.5 mg/kg) or water (control) were instilled intratracheally. Four hours later, mice receive high MW HA (1.5 mg/kg) or water control through the internal jugular vein. The animals were allowed to recover for 24 hours after LPS before bronchioalveolar lavage protein and cytokine concentration and/or lung immunohistochemistry/immunoblot analysis (Peng et al., 2004).
Determination of Bronchoavleolar Lavage Protein and Cytokine Concentration. Bronchioalveolar lavage (BAL) was performed by an intratracheal injection of 1 cc of Hank's balanced salt solution followed by gentle aspiration. The recovered fluid was processed for protein concentration (BCA Protein Assay Kit; Pierce Chemical Co., Rockford, Ill.) (Peng et. al., 2004). Cytokines (IL-6, TNFalpha) were measured using a Quantikine sandwich ELISA kit (R & D Systems).

CD44 = CD44 expression in mouse lung homogenates (immunoblot); assay type: in vivo
Experimental: as §1
Immunoblot analysis of CD44 and Caveolin-1 expression in control, LPS- and HA-treated mouse lung homogenates. CD44 is highly likely to be important in lung disease as CD44−/− mice develop lung fibrosis, inflammatory cell recruitment and accumulation of hyaluronan fragments at sites of lung injury (Teder et al., 2002). […] Caveolin-1 can be differentially regulated in various models of acute lung injury (ALI). Monocrotaline-induced rodent pulmonary hypertension results in a loss of lung EC caveolin-1 expression (Mathew et al., 2004). In contrast, there is no change in pulmonary caveolin-1 expression in lipopolyscaaharide (LPS)-induced sepsis with lung injury (Garrean et al., 2006). […]

[2] = wild type mice, LPS 2.5 mg/kg, HMW-HA 1.5 mg/kg i.v. after 4 hours

hyaluronan [HMW-HA]
EC morphological changes (AFM) (Human pulmonary EC): caused dramatic morphological changes including increased thickening of EC junctions | total number of lipid raft-like structures (AFM) (Human pulmonary EC): did not change | C1INH expression in EC (C1INH): increased the expression of the endogenous inhibitor of HABP2, C1INH | protective effect on LPS-induced pulmonary hyper-permeability (BAL) in knockout mice ([1]; CD44 knockout (and, where stated, Caveolin-1 knockout) mice, same regimen): markedly attenuated in the CD44 knockout mouse; also recorded: did not protect from LPS-induced ALI in CD44 and Caveolin-1 knockout mice; also recorded: protection was blocked in the CD44 knockout mouse; also recorded: but not the CD44 knockout | TGF-alpha concentration in BAL fluids [1, 2]: reduced the enhancing effect of LPS | TGF-beta1 concentration in BAL fluids [1, 2]: reduced the enhancing effect of LPS | LPS-induced pulmonary hyper-permeability (BAL protein concentration) [1]: pulmonary hyper-permeability was attenuated; also recorded: significant difference (p<0.05) between LPS and HMW-HA+LPS treatment in the wildtype | LPS-induced pulmonary hyper-permeability (BAL protein concentration) ([1]; listed as HWM-HA): protected from LPS-induced vascular leakiness in vivo | LPS-induced pulmonary hyper-permeability (BAL protein concentration) ([1]; listed as High MW hyaluronan): reduced the enhancing effect of LPS on BAL protein concentration | LPS-induced pulmonary hyper-permeability (BAL protein concentration) ([1]; listed as high MW HA): attenuated the vascular hyper-permeability | LPS-induced CD44 upregulation in mouse lungs (CD44; C57BL/6J mice, LPS challenged followed by HMW-HA): inhibited LPS-induced CD44 upregulation | CD44 expression in mouse lungs (CD44; HMW-HA alone): no effect on CD44 expression
